Experimental data from patent publication US6908907B2, “Prevention and treatment of tumor growth, metastasis, and thromboembolic complications in cancer patients” (priority 2002, dated 2005).

Legend:
B16 melanoma = B16 melanoma injectable model of experimental lung metastasis; type: in vivo, mice; settings: 700 ng i.v. 5 minutes prior to tumor cell injection
From the text: (§1) Tinzaparin is a low molecular weight heparin that is produced by heparinase depolymerization of unfractionated heparin allowing for its relatively high sulfate to carboxylate ratio. Beyond its potent plasmatic effects on ATIII-dependent coagulation factors, Tinzaparin is a very effective LMWH in causing the release of TFPI from the endothelial cells, the natural inhibitor of tissue factor pro-coagulant and non-coagulant effects. The present study was undertaken to investigate the effect of the LMWH, Tinzaparin as well as recombinant TFPI on experimental lung metastasis. […] In a second experimental group, in addition to the initial (pre-tumor cell) dose, subcutaneous Tinzaparin (10 mg/kg) was administered daily for 14 days at which time lung seeding was assessed. In the latter group, lung tumor formation was reduced by 96% (P<0.001). […] In order to determine the anticoagulant activity of Tinzaparin, 4 hrs after a single subcutaneous dose, whole blood re-calcification was measured using a Sonoclot Analyzer. Tinzaparin (10 mg/kg S.C.) prolonged the clotting time 4 fold. Furthermore, measuring the platelet count (a sensitive marker of intravascular coagulation) before and 15 minutes determined the effect of Tinzaparin on tumor cell-induced clotting activation in vivo after tumor cell injection in control and Tinzaparin-treated animals. […]

[1] = tested on: tumor cell-induced thrombocytopenia; experiment: Tumor cell-induced clotting activation in vivo (platelet count); parameters: species or system mice; settings: 700 ng i.v. 5 minutes prior to tumor cell injection
From the text: as §1

[2] = tested on: endothelial cell tube formation; settings: concentration-dependent; cited from earlier work
[3] = tested on: colon carcinoma (HCT-116); settings: CAM model; cited from earlier work

r-TFPI: recombinant tissue factor pathway inhibitor
reduction of B16 lung metastasis (B16 melanoma): 85%
effect on tumor cell induced thrombocytopenia [1]: abolished tumor cell induced thrombocytopenia
effect on endothelial cell tube formation [2]: significant and comparable inhibitory effects
inhibition of colon or lung carcinoma-induced angiogenesis, tumor growth and regression [3]: significant inhibition
